Laboratory results published in US20060100168A1, “Method of treating cancer using adenosine and its analogs” (The Trustee of Boston University, priority 2002, published 2006).
“Also recorded” adds a separate entry of the source.

How the values were obtained:
[1] = tested on: MCF-7 cells; assay: Anchorage-dependent growth assay (viable cell count, Trypan Blue); assay type: cell-based, human; details: for Cell Growth / Effect on MCF-7 cell growth, in words: MCF-7; for Cell Growth: 2 days of treatment, compounds at 100 μM, except adenosine (500 μM) and inosine (1 mM), normalized to vehicle control (set to 1), negative = decrease vs count before treatment, average ± SD, three experiments; for Effect on MCF-7 cell growth, in words: summary of Table 1 and discussion
Method: Anchorage-dependent growth assay: Cells were plated into 6-well plates and grown overnight before treatments. The seeding concentration of MCF-7 cells was 2×10^5/well, which was determined during preliminary experiments as not allowing the cells to reach confluency within 3 days. Cells were treated either with vehicle or ligands, as indicated. Cells were detached by incubation with trypsin (Invitrogen, Carlsbad, Calif.) and counted with a hemacytometer before or after treatment.

[2] = tested on: MCF-7 cells; assay: Apoptosis by propidium iodide staining and flow cytometry (sub-diploid events); assay type: cell-based, human; details: 100 μM; for Apoptosis: 2 days of treatment, except adenosine (500 μM) and inosine (1 mM), number of apoptotic cells compared to vehicle control (set to 1), average ± SD; for Apoptosis, in words: two days
Method: (§1) Flow Cytometry and Apoptosis Analysis: Cells were detached from tissue culture plates by trypsin treatment. Cells were collected by centrifugation at 1200 g for 5 minutes and washed once with PBS. Staining of cells with propidium iodide and analysis on a flow cytometer (FACScan, Becton Dickinson, Research Triangle Park, N.C.) was performed as described before (42). Data were analyzed with CellQuest software (Becton Dickinson, Research Triangle Park, N.C.). The percentage of cells appearing with a ploidy level smaller than a diploid content was calculated as an estimate of cells undergoing apoptosis.

[3] = tested on: MCF-7 cells; assay: Anchorage-independent growth (soft agar) assay; assay type: cell-based, human; details: for Effect on anchorage-independent growth (colony formation), in words: different concentrations
Method: Anchorage-independent growth (soft agar) assay: Soft agar assay was performed as described (40) with the following modifications. Ligands were added into the bottom and top agar before plating into 6-well plates. Cells were treated with trypsin (Invitrogen, Carlsbad, Calif.) for 5 minutes in a 37° C. incubator and pipetted several times so that most cells were in single cell forms. Cells were counted with a hemacytometer (Hausser Scientific/VWR, So. Plainfield, N.J.), and 10,000 cells were mixed with top agar and plated into each well. After the top agar had solidified, two ml of medium containing the same treatment was added on top of the agar. This covering medium was changed every two days during culture. After two weeks of culture, each well was counted for the number of colonies formed on an Olympus IX70 microscope under 40× optical amplification. A cell colony was defined as any cluster of cells that contain more than 3 cells. The average of counts from 3 random optical fields for each well was taken as the colony number and analyzed. Each treatment was performed in triplicates. The averages and standard deviations shown in the figures were calculated based on triplicate experiments.

[4] = tested on: MCF-7 cells; assay: Cell cycle analysis by flow cytometry; assay type: cell-based, human; details: 100 μM, except adenosine (500 μM) and inosine (1 mM); for Percentage change of diploid (G0 or G1 phase) population compared to vehicle-treated cells: first number in parentheses; for Percentage change of S phase population compared to vehicle-treated cells: second number in parentheses; for Percentage change of tetraploid (G2 or M phase) population compared to vehicle-treated cells: third number in parentheses
Method: as §1

[5] = tested on: estrogen receptor α (ERα); assay: ERα protein level by Western blot in MCF-7 cells; assay type: cell-based, human; details: for ERα Level: 12 hours, 100 μM, except adenosine (500 μM), Western blot quantitated, vehicle control set to 1, average of two experiments; for ERα protein level, in words: Western blot
Method: Western Blot Analysis: Cells were washed three times in cold 1×PBS, and collected by scraping on ice. Western blot analysis was performed as we described before with the chemiluminescence method (41). […] Cyclin A, cyclin B1 and p27 antibodies were used at 1:500 dilutions. Cyclin E antibody was used at 1:1000 dilutions.

[6] = tested on: primary rat bone marrow cells; assay: Thymidine incorporation assay; assay type: cell-based; details: 24 hours, IB-MECA at 100 μM
Method: (§2) Thymidine Incorporation Assay. Thymidine incorporation assays were performed as described (Zhang, Y., Wang, Z., and Ravid, K. The cell cycle in polyploid megakaryocytes is associated with reduced activity of cyclin B1-dependent cdc2 kinase. J Biol Chem, 271: 4266-4272, 1996) with modifications. Rat bone marrow cells were cultured in 25 cm^2 flasks at a concentration of 20×10^6 cells per 2 ml. After drug treatment for 24 hours, cells were incubated with ^3H-thymidine at a final concentration of 3 μCi/ml for 8 hours. For MCF-7 cells, cells were cultured in 6-well plates and incubated with ^3H-thymidine for 2 hours after drug treatment. Cells were divided into two portions, sixty percent of which were processed as described (Id.) to obtain tritium counts. The rest of the cells were lysed with Western blotting lysis buffer and protein concentrations were determined by Bio-Rad protein assay reagent (Bio-Rad, Hercules, Calif.). Tritium counts were normalized with corresponding protein concentrations to account for cell number variations.

[7] = tested on: MCF-7 cells; assay: Thymidine incorporation assay; assay type: cell-based, human; details: treated 24 hours before thymidine
Method: as §2

Row | Compound | Cell Growth [1] | Effect on MCF-7 cell growth, in words [1] | Apoptosis [2] | Effect on anchorage-independent growth (colony formation), in words ([3]; MCF-7 soft agar, two weeks) | Percentage change of diploid (G0 or G1 phase) population compared to vehicle-treated cells [4] [%] | Percentage change of S phase population compared to vehicle-treated cells [4] [%] | Percentage change of tetraploid (G2 or M phase) population compared to vehicle-treated cells [4] [%] | ERα Level [5] | inhibition at 1000 µM ([3]; Homo sapiens, MCF7, 336 h, MCF-7 soft agar, 1 mM, two weeks, read-out: Inhibition of colony-forming ability) [%] | Effect of A3AR antagonist on IB-MECA inhibitory effect on growth ([3]; MCF-7, antagonist up to 1 μM, not shown) | Apoptosis, in words [2] | ERα protein level, in words [5] | Thymidine incorporation reduced to [6] [%] | Effect on MCF-7 cell growth, in words ([1]; listed as 2-chloror-deoxyadenosine) | Thymidine incorporation decreased to [7] [%] | Cell Cycle Arrest (position of arrest) ([4]; flow cytometry) | Effect of nucleoside transporter inhibitor on growth inhibitory effect of IB-MECA ([1]; 10 μM) | Effect on cell growth by itself ([1]; at higher concentrations than 10 μM)
1 | OC[C@H]1O[C@@H](n2cnc3c(NC4CCCC4)nc(Cl)nc32)[C@H](O)[C@@H]1O [CCPA, 2-Chloro-N^6-cyclopentyladenosine] | 0.79 ± 0.16 | no significant effect on cell growth; also recorded: did not have a significant effect | 0.49 ± 0.12 | did not inhibit | 3 | −18 | 11 | 1.16 |  |  |  |  |  |  |  |  |  | 
2 | Nc1ncnc2c1ncn2[C@@H]1O[C@H](CO)[C@@H](O)[C@H]1O [Adenosine] | 0.49 ± 0.04 |  | 1.06 ± 0.17 | dose-dependent inhibition of colony formation | −25 | −56 | 97 | 1.07 | ~50 |  |  |  |  |  |  |  |  | 
3 | CCOC(=O)C1=C(C)NC(c2ccccc2)=C(C(=O)OCc2ccccc2)C1C#Cc1ccccc1 (centres unmarked) [MRS1191] |  |  |  |  |  |  |  |  |  | did not abolish |  |  |  |  |  |  |  | 
4 | Nc1ncnc2c1ncn2[C@@H]1O[C@H](CO)C[C@H]1O [Cordycepin, 3′-deoxyadenosine] | 0.24 ± 6 | significantly inhibited cell growth | 0.43 ± 0.07 |  | −26 | 10 | 62 | 0.58 |  |  | without inducing apoptosis | significantly inhibited cell growth and ERα levels |  |  |  |  |  | 
5 | OC[C@H]1O[C@@H](n2cnc3c(O)ncnc32)[C@H](O)[C@@H]1O [Inosine] | 0.90 ± 0.12 | no significant effect on cell growth | 1.02 ± 0.14 | No effect | −24 | 43 | 8 |  |  |  |  |  |  |  |  |  |  | 
6 | Nc1nc(Cl)nc2c1ncn2[C@@H]1O[C@H](CO)[C@@H](O)[C@H]1O [CADO, 2-chloro-adenosine] | −0.02 ± 0.02 | significantly inhibited cell growth | 0.84 ± 0.6 |  | −11 | 11 | 20 | 0.41 |  |  | without inducing apoptosis | significantly inhibited cell growth and ERα levels |  |  |  |  |  | 
7 | Nc1nc(Cl)nc2c1ncn2[C@H]1C[C@H](O)[C@@H](CO)O1 [CdA, 2-chloro-2′-deoxyadenosine] | 0.13 ± 0.01 |  | 1.80 ± 0.17 |  | −69 | 165 | 20 |  |  |  | induced cellular apoptosis |  | 32 | significantly inhibited; also recorded: as effective at 1 μM (not shown) as at 100 μM | 43 |  |  | 
8 | CCNC(=O)[C@H]1O[C@@H](n2cnc3c(N)nc(NCCc4ccc(CCC(=O)O)cc4)nc32)[C@H](O)[C@@H]1O [CGS21680, 2-p-(2-Carboxyethyl)phenethylamino-5′-N-ethylcarboxamidoadenosine] |  | did not have a significant effect |  | did not inhibit |  |  |  |  |  |  |  |  |  |  |  |  |  | 
9 | CCNC(=O)[C@H]1O[C@@H](n2cnc3c(N)ncnc32)[C@H](O)[C@@H]1O [NECA, 5′-(N-Ethylcarboxamido)adenosine] | 0.90 ± 0.16 | no significant effect on cell growth; also recorded: did not have a significant effect | 0.99 ± 0.05 | did not inhibit | 0 | 3 | −3 | 0.92 |  |  |  | no significant change |  |  |  | Not Detectable |  | 
10 | OCCN(CCO)c1nc(N2CCCCC2)c2nc(N(CCO)CCO)nc(N3CCCCC3)c2n1 [dipyridamole] |  |  |  |  |  |  |  |  |  |  |  |  |  |  |  |  | did not prevent the growth inhibitory effect of IB-MECA | inhibitory effect on cell growth
